The test relates to BDF1 mice, Adenocarcinoma 755 s.c., tumor weight T/C. The test can be described thus: NCI In Vivo Anticancer Drug Screen. Data for tumor model Adenocarcinoma 755 (subcutaneous) in B6D2F1 (BDF1) mice. The note with it: endpoint: mean tumor weight, higher = larger tumour. As for the experimental part: The antitumor activity of compounds was measured in mice bearing transplantable tumors. Survival or tumor size were measured and the results are expressed as the measurement made in the treated group (T) divided by the measurement made in the vehicle treated control group (C). The tumor model used in this assay is Adenocarcinoma 755 (subcutaneous) in B6D2F1 (BDF1) mice

Where [1] appears, read: dose: 25.0 mg/kg/injection, schedule: Q01DX011 (ip), vehicle: saline.
The mark [2] stands for this setting: dose: 75.0 mg/kg/injection, schedule: Q01DX011 (ip), vehicle: saline.
[3] abbreviates: dose: 50.0 mg/kg/injection, schedule: Q01DX011 (ip), vehicle: saline.
Where [4] appears, read: dose: 200.0 mg/kg/injection, schedule: Q01DX011 (ip), vehicle: saline.
[5] abbreviates: dose: 50.0 mg/kg/injection, schedule: Q01DX011 (ip), vehicle: other.

Results on 14 compounds are retold here after PubChem BioAssay AID180 (DTP/NCI, 2004).

Values joined by “and” are separate entries in the source; they are usually repeats but may differ in a detail not shown here. Identical values can stand only once.

Broadly, the T/C is the result in the treated group divided by that in the control group, in per cent. As for `O=C(O)C(CS(=O)(=O)O)Nc1ncnc2nc[nH]c12` (stereo not given), the T/C was 65 % of control (dose: 3.1 mg/kg/injection, schedule: Q01DX011 (ip), vehicle: saline); 40 % of control (dose: 6.2 mg/kg/injection, schedule: Q01DX011 (ip), vehicle: saline); 40 % of control and 43 % of control (dose: 12.5 mg/kg/injection, schedule: Q01DX011 (ip), vehicle: saline); 38 % of control (dose: 18.75 mg/kg/injection, schedule: Q01DX011 (ip), vehicle: saline); 10 % of control under setting [1]; 12 % of control (dose: 28.12 mg/kg/injection, schedule: Q01DX011 (ip), vehicle: saline). The T/C reads like this: (dose: 45.0 mg/kg/injection, schedule: Q01DX011 (ip), vehicle: saline) 4 % of control; under setting [2], 7 % of control; (dose: 225.0 mg/kg/injection, schedule: Q01DX011 (ip), vehicle: saline) 7 % of control.
On to `Cc1cnc(SCc2ccc(Cl)cc2Cl)nc1Nc1ccc(Cl)c(Cl)c1`, for which the T/C is 74 % of control (dose: 15.0 mg/kg/injection, schedule: Q01DX011 (ip), vehicle: methylcellulose (MC)); 97 % of control (dose: 31.0 mg/kg/injection, schedule: Q01DX011 (ip), vehicle: methylcellulose (MC)); 69 % of control (dose: 62.0 mg/kg/injection, schedule: Q01DX011 (ip), vehicle: methylcellulose (MC)).
As to `Cc1ccc(CSc2ncnc3nc[nH]c23)cc1C`, the T/C was 48 % of control (dose: 18.75 mg/kg/injection, schedule: Q01DX011 (ip), vehicle: methylcellulose (MC)); 41 % of control (dose: 37.5 mg/kg/injection, schedule: Q01DX011 (ip), vehicle: methylcellulose (MC)); 32 % of control (dose: 75.0 mg/kg/injection, schedule: Q01DX011 (ip), vehicle: methylcellulose (MC)); 7 % of control (dose: 150.0 mg/kg/injection, schedule: Q01DX011 (ip), vehicle: methylcellulose (MC)).
As to `Cn1c(=O)c2[nH]c(N/N=C/c3ccc(Br)cc3)nc2n(C)c1=O`, the T/C was 109 % of control (dose: 30.0 mg/kg/injection, schedule: Q01DX011 (ip), vehicle: carboxymethylcellulose (CMC)); 106 % of control (dose: 60.0 mg/kg/injection, schedule: Q01DX011 (ip), vehicle: carboxymethylcellulose (CMC)); 92 % of control and 116 % of control (dose: 120.0 mg/kg/injection, schedule: Q01DX011 (ip), vehicle: carboxymethylcellulose (CMC)); 104 % of control and 88 % of control (dose: 240.0 mg/kg/injection, schedule: Q01DX011 (ip), vehicle: carboxymethylcellulose (CMC)); 97 % of control (dose: 480.0 mg/kg/injection, schedule: Q01DX011 (ip), vehicle: carboxymethylcellulose (CMC)).
As for `C1CN1P1(N2CC2)=NP(N2CC2)(N2CC2)=NP(N2CC2)(N2CC2)=N1`, the T/C runs as follows: (dose: 3.0 mg/kg/injection, schedule: Q01DX011 (ip), vehicle: carboxymethylcellulose (CMC)) 60 % of control; (dose: 6.0 mg/kg/injection, schedule: Q01DX011 (ip), vehicle: carboxymethylcellulose (CMC)) 43 % of control; (dose: 6.0 mg/kg/injection, schedule: Q01DX011 (ip), vehicle: methylcellulose (MC)) 17 % of control and 21 % of control; (dose: 12.0 mg/kg/injection, schedule: Q01DX011 (ip), vehicle: carboxymethylcellulose (CMC)) 9 % of control.
With `Nc1ncnc2nc(/N=N/SCCC(=O)O)[nH]c12`, the T/C (dose: 37.5 mg/kg/injection, schedule: Q01DX011 (ip), vehicle: saline) was 205 % of control; the T/C under setting [2] was 123 % of control; the T/C (dose: 150.0 mg/kg/injection, schedule: Q01DX011 (ip), vehicle: saline) was 56 % of control.
Turning to `O=c1[nH]cnc2c1ncn2C1CCCCC1`, the T/C runs as follows: (dose: 23.0 mg/kg/injection, schedule: Q01DX011 (ip), vehicle: carboxymethylcellulose (CMC)) 93 % of control and 111 % of control; (dose: 23.1 mg/kg/injection, schedule: Q01DX011 (ip), vehicle: carboxymethylcellulose (CMC)) 86 % of control; (dose: 23.12 mg/kg/injection, schedule: Q01DX011 (ip), vehicle: carboxymethylcellulose (CMC)) 74 % of control; (dose: 46.0 mg/kg/injection, schedule: Q01DX011 (ip), vehicle: carboxymethylcellulose (CMC)) 74 % of control and 85 % of control; (dose: 46.2 mg/kg/injection, schedule: Q01DX011 (ip), vehicle: carboxymethylcellulose (CMC)) 118 % of control; (dose: 46.25 mg/kg/injection, schedule: Q01DX011 (ip), vehicle: carboxymethylcellulose (CMC)) 117 % of control. Also, the T/C is 104 % of control (dose: 46.25 mg/kg/injection, schedule: Q01DX011 (oral), vehicle: carboxymethylcellulose (CMC)); 90 % of control and 99 % of control and 108 % of control (dose: 92.5 mg/kg/injection, schedule: Q01DX011 (ip), vehicle: carboxymethylcellulose (CMC)); 118 % of control (dose: 92.5 mg/kg/injection, schedule: Q01DX011 (oral), vehicle: carboxymethylcellulose (CMC)); 114 % of control (dose: 185.0 mg/kg/injection, schedule: Q01DX011 (oral), vehicle: carboxymethylcellulose (CMC)); 79 % of control (dose: 370.0 mg/kg/injection, schedule: Q01DX011 (oral), vehicle: carboxymethylcellulose (CMC)).
As to `CCOC(=O)C(Cc1ccc(N(CCCl)CCCl)cc1)NC=O` (stereo not given), the T/C is, setting by setting: (dose: 5.0 mg/kg/injection, schedule: Q01DX011 (ip), vehicle: carboxymethylcellulose (CMC)) 75 % of control; (dose: 10.0 mg/kg/injection, schedule: Q01DX011 (ip), vehicle: carboxymethylcellulose (CMC)) 43 % of control; (dose: 20.0 mg/kg/injection, schedule: Q01DX011 (ip), vehicle: carboxymethylcellulose (CMC)) 48 % of control; (dose: 40.0 mg/kg/injection, schedule: Q01DX011 (ip), vehicle: carboxymethylcellulose (CMC)) 3 % of control; (dose: 80.0 mg/kg/injection, schedule: Q01DX011 (ip), vehicle: carboxymethylcellulose (CMC)) 6 % of control.
As for `CC(=O)OCC(=O)[C@@]1(O)CC[C@H]2[C@@H]3C=C(C)C4=CC(=O)CC[C@]4(C)[C@H]3[C@@H](O)C[C@@]21C`, the T/C by setting is: (dose: 11.2 mg/kg/injection, schedule: Q01DX011 (sc), vehicle: steriod suspending solution) 36 % of control and 57 % of control; (dose: 22.5 mg/kg/injection, schedule: Q01DX011 (sc), vehicle: steriod suspending solution) 42 % of control and 50 % of control; (dose: 45.0 mg/kg/injection, schedule: Q01DX011 (sc), vehicle: steriod suspending solution) 23 % of control and 24 % of control; (dose: 90.0 mg/kg/injection, schedule: Q01DX011 (sc), vehicle: steriod suspending solution) 15 % of control and 16 % of control; (dose: 180.0 mg/kg/injection, schedule: Q01DX011 (sc), vehicle: steriod suspending solution) 10 % of control.
Turning to `CC(C)CN(C)/N=N/c1nc[nH]c1C(N)=O`, the T/C runs as follows: (dose: 25.0 mg/kg/injection, schedule: Q01DX011 (ip), vehicle: carboxymethylcellulose (CMC)) 40 % of control; (dose: 37.5 mg/kg/injection, schedule: Q01DX011 (ip), vehicle: carboxymethylcellulose (CMC)) 22 % of control.
For `CC(=O)NCCSC(=O)C(=O)SCCNC(C)=O`, the T/C is 62 % of control under setting [1]; 65 % of control under setting [3]; 42 % of control and 63 % of control under setting [4].
With `NC(=O)NOC(=O)c1ccccc1`, the T/C was 57 % of control under setting [5]; 86 % of control under setting [3]; 28 % of control (dose: 100.0 mg/kg/injection, schedule: Q01DX011 (ip), vehicle: other); 75 % of control (dose: 100.0 mg/kg/injection, schedule: Q01DX011 (ip), vehicle: saline); 21 % of control (dose: 200.0 mg/kg/injection, schedule: Q01DX011 (ip), vehicle: other); 94 % of control under setting [4]. Where the note is “dose: 400.0 mg/kg/injection, schedule: Q01DX011 (ip), vehicle: saline”, the T/C was 92 % of control.
`C[C@]12CCC(=O)C=C1CC[C@@H]1[C@@H]2C(=O)C[C@@]2(C)[C@H]1CC[C@]2(O)C(=O)COS(=O)(=O)O`: the T/C reads like this: (dose: 5.0 mg/kg/injection, schedule: Q01DX011 (sc), vehicle: steriod suspending solution) 100 % of control; (dose: 50.0 mg/kg/injection, schedule: Q01DX011 (sc), vehicle: steriod suspending solution) 91 % of control; (dose: 100.0 mg/kg/injection, schedule: Q01DX011 (sc), vehicle: steriod suspending solution) 57 % of control.
As for `C=C(Br)CN(CC)CCO`, the T/C under setting [5] was 66 % of control.
